# Laboratory results taken from patent US20230365576A1, “BRM Targeting Compounds And Associated Methods Of Use” (Prelude Therapeutics Incorporated, priority 2022, published 2023).
# Key:
# [1] = target: T1, SMARCA2 (Homo sapiens, UniProt P51531); assay: SMARCA2 HiBiT degradation assay in HeLa cells; assay type: cell-based; settings: 18 hours; for DC50: read-out: SMARCA2 IC50; for Dmax: HeLa
# T1 construct: SMARCA2-HiBiT knock-in Hela monoclonal cell (CS302366); host or cells: HeLa (CRISPR HiBiT knock-in monoclonal line, heterozygous)
# Method: (§1) Example A. SMARCA2 HiBiT and SMARCA4 HiBiT Degradation Assay
# (§2) Preparation of SMARCA2/4-HiBiT Knock-In Cells
# (§3) HiBiT peptide knock-in of SMARCA2 in LgBiT expressing HEK293T cells was performed by CRISPR-mediated tagging system as described Promega. The homozygous HiBiT knock-in on c-terminus SMARCA2 was confirmed by sanger sequence. SMARCA2-HiBiT knock-in Hela monoclonal cell (CS302366) and SMARCA4-HiBiT knock-in Hela monoclonal cell (CS3023226) were purchased from Promega. The heterozygous HiBiT-knock-in was confirmed by sanger sequence in both SMARCA2-HiBiT and SMARCA4-HiBiT monoclonal cells.
# (§4) SMARCA2 HiBiT and SMARCA4 HiBiT Degradation Assay in HeLa Cells
# (§5) Compounds were dissolved in DMSO to make 10 mM stock and 3-fold series dilutions were further conducted keeping the highest concentration 10 μM. NCIH1693 and NCIH520 cells were maintained in PRMI 1640 medium (Corning Cellgro, Catalog #:10-040-CV) supplemented with 10% v/v FBS (GE Healthcare, Catalog #: SH30910.03) by splitting 1:3 twice a week.
# (§6) Dispense 10 ul aliquot of prepared Hela-SMARCA2-HiBiT or Hela-SMARCA4-HiBiT cells (1:1 ratio of cells:Trypan Blue (#1450013, Bio-Rad)) onto cell counting slide (#145-0011, Bio-Rad) and obtain cell density and cell viability using cell counter (TC20, Bio-Rad). Remove appropriate volume of resuspended cells from culture flask to accommodate 2500 cells/well @ 20 μL/well. Transfer Hela-HiBiT cells to 50 mL conical (#430290, Corning). Spin down at 1000 rpm for 5 min using tabletop centrifuge (SPINCHRON 15, Beckman). Discard supernatant and resuspend cell pellet in modified EMEM (#30-2003, ATCC) cell culture media containing 10% FBS (F2422-500ML, Sigma), and 1X Penicillin/Streptomycin (200 g/L) (30-002-CI, Corning) to a cell density of 125,000 cells/mL. Dispense 20 μL of resuspended Hela-HiBit cells per well in 384-well TC treated plate (#12-565-343, Thermo Scientific) using standard cassette (#50950372, Thermo Scientific) on Multidrop Combi (#5840310, Thermo Scientific) inside laminar flow cabinet. Dispense test compounds onto plates using digital liquid dispenser (D300E, Tecan). Incubate plates in humidified tissue culture incubator @37° C. for 18 hours. Add 20 μL of prepared Nano-Glo® HiBiT Lytic detection buffer (N3050, Promega) to each well of 384-well plate using small tube cassette (#24073295, Thermo Scientific) on Multidrop Combi, incubate @ RT for 30-60 min. Read plates on microplate reader (Envision 2105, PerkinElmer) using 384 well Ultra-Sensitive luminescence mode. Raw data files and compound information reports are swept into centralized data lake and deconvoluted using automated scripts designed by TetraScience, Inc. Data analysis, curve-fitting and reporting done in Dotmatics Informatics Suite using Screening Ultra module.
# [2] = target: T2, SMARCA4 (Homo sapiens, UniProt P51532); assay: SMARCA4 HiBiT degradation assay in HeLa cells; assay type: cell-based; settings: 18 hours; for Dmax: HeLa
# T2 construct: SMARCA4-HiBiT knock-in Hela monoclonal cell (CS3023226) were purchased from Promega; host or cells: HeLa (CRISPR HiBiT knock-in monoclonal line, heterozygous)
# Method: as §1, §2, §3, §4, §5, §6
# T2 sequence (P51532 whole entry): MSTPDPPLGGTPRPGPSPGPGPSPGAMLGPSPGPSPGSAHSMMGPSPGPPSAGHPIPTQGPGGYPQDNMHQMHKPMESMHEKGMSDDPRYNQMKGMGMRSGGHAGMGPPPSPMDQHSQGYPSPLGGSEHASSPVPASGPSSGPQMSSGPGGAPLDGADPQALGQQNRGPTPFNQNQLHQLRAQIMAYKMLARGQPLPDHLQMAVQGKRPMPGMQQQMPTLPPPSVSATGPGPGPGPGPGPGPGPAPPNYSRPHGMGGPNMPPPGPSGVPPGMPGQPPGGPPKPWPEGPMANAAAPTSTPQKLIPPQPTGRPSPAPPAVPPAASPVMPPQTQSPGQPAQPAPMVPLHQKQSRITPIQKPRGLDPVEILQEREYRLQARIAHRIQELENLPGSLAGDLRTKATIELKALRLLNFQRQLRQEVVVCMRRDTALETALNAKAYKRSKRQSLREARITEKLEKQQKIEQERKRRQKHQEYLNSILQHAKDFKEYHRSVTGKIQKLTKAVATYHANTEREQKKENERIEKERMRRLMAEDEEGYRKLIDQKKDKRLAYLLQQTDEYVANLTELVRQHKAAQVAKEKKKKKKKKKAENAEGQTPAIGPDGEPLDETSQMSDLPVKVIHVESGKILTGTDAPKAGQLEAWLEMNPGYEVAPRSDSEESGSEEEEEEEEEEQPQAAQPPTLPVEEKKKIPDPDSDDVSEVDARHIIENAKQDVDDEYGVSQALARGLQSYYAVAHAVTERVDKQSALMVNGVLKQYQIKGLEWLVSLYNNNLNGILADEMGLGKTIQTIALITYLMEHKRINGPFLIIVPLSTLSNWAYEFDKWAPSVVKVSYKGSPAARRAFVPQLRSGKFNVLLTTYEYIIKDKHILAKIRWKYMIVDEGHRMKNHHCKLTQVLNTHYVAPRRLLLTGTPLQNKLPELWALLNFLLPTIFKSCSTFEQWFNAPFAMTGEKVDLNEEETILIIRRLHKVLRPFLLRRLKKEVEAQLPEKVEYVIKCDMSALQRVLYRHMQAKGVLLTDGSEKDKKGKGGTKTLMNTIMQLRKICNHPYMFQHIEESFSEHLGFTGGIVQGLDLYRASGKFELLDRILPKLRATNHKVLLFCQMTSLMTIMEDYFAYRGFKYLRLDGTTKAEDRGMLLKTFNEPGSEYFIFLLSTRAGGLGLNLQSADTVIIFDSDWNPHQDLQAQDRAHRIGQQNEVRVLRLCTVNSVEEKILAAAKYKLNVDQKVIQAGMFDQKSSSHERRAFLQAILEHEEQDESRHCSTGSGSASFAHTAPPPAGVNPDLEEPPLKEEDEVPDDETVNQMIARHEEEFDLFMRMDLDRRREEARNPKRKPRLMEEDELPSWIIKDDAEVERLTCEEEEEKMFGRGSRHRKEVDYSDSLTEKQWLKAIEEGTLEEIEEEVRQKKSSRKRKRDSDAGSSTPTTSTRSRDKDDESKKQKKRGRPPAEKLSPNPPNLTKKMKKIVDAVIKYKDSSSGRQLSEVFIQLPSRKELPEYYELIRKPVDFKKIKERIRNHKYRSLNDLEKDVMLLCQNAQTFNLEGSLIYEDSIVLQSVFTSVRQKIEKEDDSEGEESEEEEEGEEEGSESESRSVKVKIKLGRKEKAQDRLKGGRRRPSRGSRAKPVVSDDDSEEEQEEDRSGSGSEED
# T1 sequence (P51531 whole entry): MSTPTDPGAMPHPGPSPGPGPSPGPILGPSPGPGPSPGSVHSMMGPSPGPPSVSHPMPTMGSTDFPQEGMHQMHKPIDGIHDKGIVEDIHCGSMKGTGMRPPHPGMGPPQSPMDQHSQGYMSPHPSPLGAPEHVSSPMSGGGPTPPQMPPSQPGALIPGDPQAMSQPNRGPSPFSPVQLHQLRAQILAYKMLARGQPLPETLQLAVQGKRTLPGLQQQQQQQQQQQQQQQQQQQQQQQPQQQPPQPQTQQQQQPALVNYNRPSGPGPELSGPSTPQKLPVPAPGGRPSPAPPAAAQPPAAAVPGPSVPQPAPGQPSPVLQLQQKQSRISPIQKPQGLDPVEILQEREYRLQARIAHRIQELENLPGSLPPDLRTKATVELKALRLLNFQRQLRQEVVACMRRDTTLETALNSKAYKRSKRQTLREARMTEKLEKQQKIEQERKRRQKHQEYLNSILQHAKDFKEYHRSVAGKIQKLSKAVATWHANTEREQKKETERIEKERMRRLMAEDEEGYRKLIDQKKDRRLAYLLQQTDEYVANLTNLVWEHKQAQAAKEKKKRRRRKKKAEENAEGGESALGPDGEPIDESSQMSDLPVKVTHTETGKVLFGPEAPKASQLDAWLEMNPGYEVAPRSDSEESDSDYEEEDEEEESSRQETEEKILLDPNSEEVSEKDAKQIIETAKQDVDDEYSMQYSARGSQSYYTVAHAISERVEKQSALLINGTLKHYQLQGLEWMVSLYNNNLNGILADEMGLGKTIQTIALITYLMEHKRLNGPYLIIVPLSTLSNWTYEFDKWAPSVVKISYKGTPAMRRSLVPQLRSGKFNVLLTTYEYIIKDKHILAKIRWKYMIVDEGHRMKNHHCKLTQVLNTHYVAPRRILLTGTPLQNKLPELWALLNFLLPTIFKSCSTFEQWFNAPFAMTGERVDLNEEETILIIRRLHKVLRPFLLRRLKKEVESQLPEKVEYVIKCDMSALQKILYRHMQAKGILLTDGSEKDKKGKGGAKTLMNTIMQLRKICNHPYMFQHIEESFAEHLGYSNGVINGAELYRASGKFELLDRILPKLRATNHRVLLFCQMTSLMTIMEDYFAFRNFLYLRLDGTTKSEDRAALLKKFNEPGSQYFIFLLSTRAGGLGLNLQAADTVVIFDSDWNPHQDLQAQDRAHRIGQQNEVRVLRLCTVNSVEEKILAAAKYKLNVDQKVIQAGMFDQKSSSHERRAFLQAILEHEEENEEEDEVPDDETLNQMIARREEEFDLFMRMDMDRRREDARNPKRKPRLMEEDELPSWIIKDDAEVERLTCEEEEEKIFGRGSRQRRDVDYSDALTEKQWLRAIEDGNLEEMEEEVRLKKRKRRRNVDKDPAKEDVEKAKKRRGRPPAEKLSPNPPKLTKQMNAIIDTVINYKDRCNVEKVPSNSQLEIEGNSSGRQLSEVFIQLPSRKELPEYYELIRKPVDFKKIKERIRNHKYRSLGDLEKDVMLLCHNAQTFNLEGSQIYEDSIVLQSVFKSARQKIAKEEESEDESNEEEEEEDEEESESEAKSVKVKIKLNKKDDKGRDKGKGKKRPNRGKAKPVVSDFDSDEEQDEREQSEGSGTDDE
Structure (SMILES),DC50 [1],Dmax [1],DC50 [2],Dmax [2],SMARCA2 DMax % [1]
"CC1(C)CN(CC2CCN(c3ccc4c(c3)C(=O)N(C3CCC(=O)NC3=O)C4)CC2)CCN1C(=O)N1CCN2c3cc(-c4cc(F)cc(F)c4O)nnc3NC[C@H]2C1 (stereo partly drawn) [Example 22, 3-(6-(4-((4-((S)-2-(3,5-difluoro-2-hydroxyphenyl)-6,6a,7,8,9,10-hexahydro-5H-pyrazino[1′,2′:4,5]pyrazino[2,3-c]pyridazine-8-carbonyl)-3,3-dimethylpiperazin-1-yl)methyl)piperidin-1-yl)-1-oxoisoindolin-2-yl)piperidine-2,6-dione]",< 100 nM,> 75%,< 100 nM,50 to 75%,
"O=C1CC[C@H](N2Cc3ccc(N4CCC(CN5CCC(F)(C(=O)N6CCN7c8cc(-c9cc(F)cc(F)c9O)nnc8NC[C@]7(C(F)F)C6)CC5)CC4)cc3C2=O)C(=O)N1 [Example 105, (S)-3-(6-(4-((4-((R)-2-(3,5-difluoro-2-hydroxyphenyl)-6a-(difluoromethyl)-6,6a,7,8,9,10-hexahydro-5H-pyrazino[1′,2′:4,5]pyrazino[2,3-c]pyridazine-8-carbonyl)-4-fluoropiperidin-1-yl)methyl)piperidin-1-yl)-1-oxoisoindolin-2-yl)piperidine-2,6-dione]",< 100 nM,> 75%,< 100 nM,50 to 75%,
"CC1(C)CN(CC2CCN(c3ccc4c(c3)C(=O)N([C@H]3CCC(=O)NC3=O)C4)CC2)CCN1C(=O)N1CCN2c3cc(-c4cccc(F)c4O)nnc3NCC2(CF)C1 (single isomer, unassigned) [Example 89]",< 100 nM,> 75%,100 to 1000 nM,< 50%,
"C[C@@H]1CN(C[C@H]2CN(c3ccc4c(c3)CN(C3CCC(=O)NC3=O)C4=O)CCO2)C[C@@H](C)N1C(=O)N1CCN2c3cc(-c4cc(F)cc(F)c4O)nnc3NC[C@H]2C1 (stereo partly drawn) [Example 46, 3-(5-((S)-2-(((3R,5R)-4-((S)-2-(3,5-difluoro-2-hydroxyphenyl)-6,6a,7,8,9,10-hexahydro-5H-pyrazino[1′,2′:4,5]pyrazino[2,3-c]pyridazine-8-carbonyl)-3,5-dimethylpiperazin-1-yl)methyl)morpholino)-1-oxoisoindolin-2-yl)piperidine-2,6-dione]",< 100 nM,> 75%,< 100 nM,< 50%,
"CC1(C)CC(CN2CCN(c3ccc4c(c3)C(=O)N([C@H]3CCC(=O)NC3=O)C4)CC2)CCN1C(=O)N1CCN2c3cc(-c4cccc(F)c4O)nnc3NC[C@@]2(C(F)F)C1 (stereo partly drawn) [Example 73, (3S)-3-(6-(4-((1-((S)-6a-(difluoromethyl)-2-(3-fluoro-2-hydroxyphenyl)-6,6a,7,8,9,10-hexahydro-5H-pyrazino[1′,2′:4,5]pyrazino[2,3-c]pyridazine-8-carbonyl)-2,2-dimethylpiperidin-4-yl)methyl)piperazin-1-yl)-1-oxoisoindolin-2-yl)piperidine-2,6-dione]",< 100 nM,> 75%,100 to 1000 nM,< 50%,
"C[C@H]1CN2c3cc(-c4cc(F)cc(F)c4O)nnc3NC[C@H]2CN1C[C@H]1[C@@H]2CN(C[C@H]3CCN(c4ccc5c(c4)C(=O)N(C4CCC(=O)NC4=O)C5)C[C@@H]3F)C[C@@H]21 (single isomer, unassigned) [Example 39]",< 100 nM,> 75%,< 100 nM,< 50%,
"C[C@@H]1CN(CC2CCN(c3ccc4c(c3)C(=O)N(C3CCC(=O)NC3=O)C4)CC2)C[C@H](C)N1C(=O)N1CCN2c3cc(-c4cccc(F)c4O)nnc3NC[C@]2(C(F)F)C1 (stereo partly drawn) [Example 70, 3-(6-(4-(((3R,5S)-4-((R)-6a-(difluoromethyl)-2-(3-fluoro-2-hydroxyphenyl)-6,6a,7,8,9,10-hexahydro-5H-pyrazino[1′,2′:4,5]pyrazino[2,3-c]pyridazine-8-carbonyl)-3,5-dimethylpiperazin-1-yl)methyl)piperidin-1-yl)-1-oxoisoindolin-2-yl)piperidine-2,6-dione]",< 100 nM,> 75%,< 100 nM,50 to 75%,
"CCC12CNc3nnc(-c4cccc(Cl)c4O)cc3N1CCN(C(=O)N1[C@H](C)CN(CC3CCN(c4ccc5c(c4)C(=O)N([C@H]4CCC(=O)NC4=O)C5)CC3)C[C@H]1C)C2 (single isomer, unassigned) [Example 75]",< 100 nM,> 75%,< 100 nM,50 to 75%,
"O=C1CCC(N2Cc3ccc(N4CCC(CN5C[C@@H]6[C@H](C5)[C@H]6CN5CCN6c7cc(-c8cc(F)cc(F)c8O)nnc7NC[C@H]6C5)C(F)(F)C4)cc3C2=O)C(=O)N1 (single isomer, unassigned) [Example 40]",< 100 nM,,< 100 nM,50 to 75%,B (B=50%<Dmax≤75%)
"C[C@@H]1CN(CC2CN(c3ccc4c(c3)C(=O)N(C3CCC(=O)NC3=O)C4)C2)C[C@H](C)N1C(=O)N1CCN2c3cc(-c4cccc(F)c4O)nnc3NC[C@H]2C1 (stereo partly drawn) [Example 2, 3-(6-(3-(((3R,5S)-4-((S)-2-(3-fluoro-2-hydroxyphenyl)-6,6a,7,8,9,10-hexahydro-5H-pyrazino[1′,2′:4,5]pyrazino[2,3-c]pyridazine-8-carbonyl)-3,5-dimethylpiperazin-1-yl)methyl)azetidin-1-yl)-1-oxoisoindolin-2-yl)piperidine-2,6-dione]",< 100 nM,> 75%,< 100 nM,< 50%,
"C[C@@H]1CN(CC2CCN(c3ccc4c(c3)C(=O)N(C3CCC(=O)NC3=O)C4)CC2)C[C@H](C)N1C(=O)N1CCN2c3cc(-c4cccc(F)c4O)nnc3NC[C@@]2(C(F)F)C1 (stereo partly drawn) [Example 69, 3-(6-(4-(((3R,5S)-4-((S)-6a-(difluoromethyl)-2-(3-fluoro-2-hydroxyphenyl)-6,6a,7,8,9,10-hexahydro-5H-pyrazino[1′,2′:4,5]pyrazino[2,3-c]pyridazine-8-carbonyl)-3,5-dimethylpiperazin-1-yl)methyl)piperidin-1-yl)-1-oxoisoindolin-2-yl)piperidine-2,6-dione]",< 100 nM,> 75%,> 1000 nM,< 50%,
"C[C@@H]1CN(CC2CCN(c3ccc4c(c3)C(=O)N(C3CCC(=O)NC3=O)C4)CC2)C[C@H](C)N1C(=O)N1CCN2c3cc(-c4cccc(Cl)c4O)nnc3NCC2(C)C1 (single isomer, unassigned) [Example 92]",< 100 nM,> 75%,> 1000 nM,< 50%,
O=C1CCC(N2Cc3ccc(N4CCN(C[C@H]5CC[C@H](CN6CCN7c8cc(-c9cc(F)cc(F)c9O)nnc8NC[C@H]7C6)CC5)CC4)cc3C2=O)C(=O)N1 (stereo partly shown) [Example 54],< 100 nM,> 75%,< 100 nM,> 75%,
"CCC12CNc3nnc(-c4cccc(F)c4O)cc3N1CCN(C(=O)N1CCN(CC3CCN(c4ccc5c(c4)C(=O)N([C@H]4CCC(=O)NC4=O)C5)CC3)CC1(C)C)C2 (single isomer, unassigned) [Example 74]",< 100 nM,> 75%,< 100 nM,50 to 75%,
"C[C@@H]1C[C@H](CN2CCN(c3ccc4c(c3)C(=O)N([C@H]3CCC(=O)NC3=O)C4)CC2)C[C@H](C)N1C(=O)N1CCN2c3cc(-c4cccc(F)c4O)nnc3NCC2(C)C1 (single isomer, unassigned) [Example 121]",< 100 nM,,< 100 nM,,
